The IC50 is the point on the concentration scale where inhibition reaches its midpoint.

Molecules are shown by their SMILES.

The test addresses T1, PTP1B (protein tyrosine phosphatase 1B) (Homo sapiens, UniProt P18031).
T1 construct: gene PTPN1
T1 sequence (P18031 1-435): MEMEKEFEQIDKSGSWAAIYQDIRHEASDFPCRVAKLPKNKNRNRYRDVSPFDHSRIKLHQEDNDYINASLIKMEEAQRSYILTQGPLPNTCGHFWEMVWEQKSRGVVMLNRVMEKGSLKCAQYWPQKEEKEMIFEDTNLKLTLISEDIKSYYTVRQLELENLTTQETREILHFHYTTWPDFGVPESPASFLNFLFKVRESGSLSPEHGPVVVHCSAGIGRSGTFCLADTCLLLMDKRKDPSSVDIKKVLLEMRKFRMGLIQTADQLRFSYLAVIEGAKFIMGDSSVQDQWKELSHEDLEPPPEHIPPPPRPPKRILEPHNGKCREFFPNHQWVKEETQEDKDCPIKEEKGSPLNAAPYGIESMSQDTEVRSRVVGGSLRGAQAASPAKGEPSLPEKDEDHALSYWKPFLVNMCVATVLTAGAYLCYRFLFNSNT
As to the kind of experiment: p-NPP hydrolysis assay with recombinant human PTP1B; Lineweaver-Burk kinetics. The class given is biochemical.

In the case of `O=C(O)C[C@@H]1C(C(=O)O)=CO[C@@H](O[C@@H]2O[C@H](CO)[C@@H](O)[C@H](O)[C@H]2O)C1=CCOC(=O)/C=C/c1ccc(O)cc1` [compound 3, Symplocochinside C], the IC50 was 19.5 ± 0.76 µM.
